Where two headings read alike, the source gives them in different places.
Target: single-stranded miR-145
Assay: Isothermal titration calorimetry (ITC), Waters Nano-ITC
Assay type: binding
Conditions: for Kd: Multiple Sites model
From the text: Isothermal titration calorimetry (ITC) utilizes the principle of power compensation to accurately obtain the enthalpy change of intermolecular interactions within a broad concentration range in the system through a single concentration scan. It measures the heat change during binding and provides the complete thermodynamic characteristics of nucleic acid-ligand interactions. Quantifying the thermodynamic properties and energy of the complex is essential for analyzing the molecular basis of the interaction between the microRNA miR-145 and the compound. The present invention uses the Waters Nano-ITC calorimeter to in vitro verify the nucleic acid-small molecule interactions.
The experimental process involves placing 300µL of a 50µM single-stranded miR-145 solution in a temperaturecontrolled sample chamber, and using small molecule A-3-6 (i.e., the 2-phenyl-N-(1H-pyrrolo[2,3-c]pyridine-5-yl)acetamide obtained in Example 9) as the ligand in a 50µL, 500µM concentration, which is gradually injected (or titrated) into the sample chamber. The heat change is measured by comparing the sample chamber with a reference chamber, showing either an endothermic or exothermic peak. The interaction pattern between the two reactants is fitted using the software provided by the instrument, and it directly calculates the reaction binding enthalpy (ΔH, kJ/mol), reaction binding entropy (ΔS, J/(mol·K)), number of binding sites (n), and binding equilibrium constant (Ka, M), obtaining the kinetic data. […] The calculated number of binding sites (nSite) for A-3-6 with miR-145 solution are n1=3 and n2=1.8, with Kd1=7.017E-8 and Kd2=7.544E-9, ΔH1=-69.08 and ΔH2=-137.2, ΔS1=-9.474E1 and ΔS2=-3.048E2.

Kd (site 1, read-out: Kd1): 0.0702 µM
Kd (site 2, read-out: Kd2): 0.00754 µM
binding to the target single-stranded miR-145 (conclusion from the ITC experiment): can specifically bind
Structure (SMILES): O=C(Cc1ccccc1)Nc1cc2cc[nH]c2cn1 [Compound A-3-6, 2-Phenyl-N-(1H-Pyrrolo[2,3-c]pyridin-5-yl)acetamide]
